In one data set the test system is mouse. As to the kind of experiment: observation for neurotoxicity symptoms (motility, muscle tonus, respiratory frequency, body temperature, general behaviour). Type of data set: in vivo. On the procedure: During the experiments described above, the animals were observed during the whole of the experimental period (up to 4 hours) for signs of substance-caused changes of behaviour and neurotoxicity (motility, muscle tonus, respiratory frequency, body temperature and general behaviour).

Data set [1] relates to maximum electroshock spasm (MES), extensor spasm in mice. The experiment in a line: MES test (maximum electroshock; inhibition of extensor spasm). The note with it: for responders at 50 mg/kg / ED50 / responders at 100 mg/kg: Mus musculus; for ED50: read-out: ED 50 values; for ED 50 values (estimated values): * estimated from several tests with different dosages; for responders at 50 mg/kg / protective action [%] after 3 hrs: 50 mg/kg. The class given is in vivo, male mice (NMRI). From the text:
For the determination of the anticonvulsive/anti-epileptic activity of the substances according to the present invention the method described by E. A. Swinyard et al., J. Pharmacol. exp. Therapeut. 106, 319-330 (1952) and by L. A. Woodbury et al., Arch. int. Pharmacodyn., 92, 97-107 (1952) was used. To male mice (NMRI) with a body weight of 20-25 g via corneal electrodes, an alternating current of 50 Hz and 50 mA is applied for 0.2 sec. (HSE-shock stimulation apparatus; type 207). The maximum electroshock spasm (MES) consists of a tonic extension of the rear extremities, the clonic twitch and loss of consciousness. The activity criterion is taken as being the inhibition of the extensor spasm by the substances according to the present invention. Before the experiments the mice had free access to feed and water. The test substances were administered orally as suspensions in 0.2% agar by stomach tubes; the control animals received adequate volumes of agar. 1 hour and 3 hours after administration the test for protective action against MES was carried out.
As percentage action the percentage proportion of those animals which in the MES test were protected 100% against the extensor spasm is given. 10 animals were used per test.
The ED 50 values were determined according to Lichtfield and Wilcoxon J. Pharmacol. exp. Therapeut. 96, 99 (1949) in each case with 4 to 5 animal groups each of 8-10 animals per dosage stage.

The test system is the same in data set [2]. The data set is described as above. Type of data set: in vivo, male mice (NMRI). The note with it: Mus musculus, ip, 1 h, read-out: protective action [%] after 1 hr.
The mark [3] stands for this setting: po, 1 h, oral, 1 hr after administration, n = 10, read-out: protective action [%] after 1 hr.
Setting [4] is: po, 3 h, oral, 3 hrs after administration, n = 10, read-out: protective action [%] after 3 hrs.
Setting [5] is: po, 1 h, MES test, oral, 1 hour after administration.
Setting [6] is: po, 1 h, 100 mg/kg, oral, 1 hr after administration, n = 10, read-out: protective action [%] after 1 hr.
Setting [7] is: po, 3 h, 100 mg/kg, oral, 3 hrs after administration, n = 10, read-out: protective action [%] after 3 hrs.
[8] abbreviates: MES test, oral, 1 hour after administration.

SMILES strings stand for the structures. Structures can show the parent of a compound that is named as a salt. Where two headings read alike, the source gives them in different places. Where only a bound is given, the exact number is not on record here.

Take `CCCC(C)C1(CC)C(=O)NC(=O)NC1=O` (stereo not drawn) [pentobarbital]: the “Neurotoxic limiting dose in the mouse, dose p.o.” value in the data set on mouse (p.o.) turned out to be 60 mg/kg.
With `NC(=O)N1c2ccccc2C=Cc2ccccc21` [carbamazepine, reference compound], the responders at 50 mg/kg in data set [1] (setting [3]) and in data set [1] (setting [4]) was 100% each time. The “Neurotoxic limiting dose in the mouse, dose p.o.” value in the data set with mouse (in vivo, po) came out at 100 mg/kg.
Turning to `CCC1(c2ccccc2)C(=O)NC(=O)NC1=O` [phenobarbital, reference compound], in data set [1] (po, 1 h), the ED50 was found to be 19.2 mg/kg. The responders at 100 mg/kg amounted to 100% in data set [1] (po, 1 h, read-out: protective action [%] after 1 hr) and 100% in data set [1] (po, 3 h, read-out: protective action [%] after 3 hrs). Further, in the data set on mouse (p.o.), the “Neurotoxic limiting dose in the mouse, dose p.o.” value worked out at 60 mg/kg.
For the molecule `O=C1NC(=O)C(c2ccccc2)(c2ccccc2)N1` [phenytoin, diphenylhydantoin, reference compound], the responders at 50 mg/kg in data set [1] (setting [3]) and in data set [1] (setting [4]) was 100% in each case. In addition, in data set [1] (setting [5]), the ED50 stood at 9.1 mg/kg. In addition, the “Neurotoxic limiting dose in the mouse, dose p.o.” value with mouse (in vivo, po) amounted to 100 mg/kg.
With `CCC1(C)CC(=O)NC1=O` (stereo not drawn) [ethosuximide, reference compound], the responders at 100 mg/kg in data set [1] (setting [6]) and in data set [1] (setting [7]) was 0% each time. The ED50 in data set [1] (po, 4 h, MES test, oral, ** 4 hours after administration) was over 250 mg/kg. For the same molecule, in the data set with mouse (in vivo, po), the “Neurotoxic limiting dose in the mouse, dose p.o.” value is recorded as 500 mg/kg.
With `COC1=CC(=O)O[C@H]1[C@H](OC(=O)CN)c1ccccc1Cl` (relative stereo) [Example 111, threo-5-[2-chlorophenyl-(glycyloxy)-methyl]-4-methoxy-2(5H)-furanone hydrobromide], the responders at 50 mg/kg in data set [1] (setting [3]) was 100%; in data set [1] (setting [4]), 80%. For the same molecule, the ED50 in data set [1] (setting [5]) is 24.2 mg/kg.
For the molecule `COC1=CC(=O)O[C@@H]1[C@@H](OC(=O)[C@@H]1CCCN1)c1ccccc1Cl` [103 A], the responders at 100 mg/kg in data set [1] (setting [6]) and in data set [1] (setting [7]) was 100% throughout. Moreover, the ED50 in data set [1] (setting [5]) was found to be 10.7 mg/kg.
Regarding `COC1=CC(=O)OC1C(OC(=O)[C@@H]1CCCN1)c1ccccc1C(F)(F)F` (stereo partly drawn) [139 B], the responders at 100 mg/kg in data set [1] (setting [6]) amounted to 40%; in data set [1] (setting [7]), 10%.
Take `COC1=CC(=O)OC1C(OC(=O)[C@@H]1CCC(=O)N1)c1ccccc1Cl` (single isomer, unassigned) [125 A]: the results for the responders at 50 mg/kg in data set [1] (setting [3]) and in data set [1] (setting [4]) were 100% and 80%, respectively.
For `COC1=CC(=O)OC1C(OC(=O)[C@H](C)N)c1ccc(Cl)cc1Cl` (stereo partly drawn) [Example 133, threo-5-[L-alanyloxy-(2,4-dichlorophenyl)-methyl]-4-methoxy-2(5H)-furanone hydrobromide], in data set [1] (setting [8]), the “ED 50 values (estimated values)” value is 60 to 70 mg/kg. For the same molecule, the responders at 100 mg/kg in data set [1] (setting [6]) and in data set [1] (setting [7]) was 100% throughout.
For the molecule `COC1=CC(=O)O[C@H]1[C@H](OC(=O)CNC(C)=O)c1ccc(Cl)cc1Cl` (relative stereo) [Example 132, threo-5-[N-acetylglycyloxy-(2,4-dichlorophenyl)-methyl]-4-methoxy-2(5H)-furanone], the responders at 100 mg/kg in data set [1] (setting [6]) is 20%; in data set [1] (setting [7]) it was 50%.
As to `COC1=CC(=O)OC1C(OC(=O)[C@@H]1CCCN1)c1ccccc1C(F)(F)F` (single isomer, unassigned) [139 A], the “ED 50 values (estimated values)” value in data set [1] (setting [8]) is 15 to 20 mg/kg. Also, the results for the responders at 50 mg/kg in data set [1] (setting [3]) and in data set [1] (setting [4]) were 100% and 50%, respectively.
Take `COC1=CC(=O)OC1C(OC(=O)[C@@H](N)c1ccccc1)c1ccccc1Cl` (single isomer, unassigned) [117 A]: in data set [1] (oral, 3 hrs after administration, n = 10), the “protective action [%] after 3 hrs” value was determined as 100%. Besides, the responders at 50 mg/kg in data set [1] (setting [3]) stood at 100%. Besides, the ED50 in data set [1] (setting [5]) is 16 mg/kg.
With `COC1=CC(=O)O[C@H]1[C@H](OC(=O)[C@@H]1CCCN1)c1ccccc1Cl` [103 B], the responders at 100 mg/kg in data set [1] (setting [6]) is 50%; in data set [1] (setting [7]), 0%. Besides, in data set [1] (setting [5]), the ED50 was 95 mg/kg.
For `COC1=CC(=O)OC1C(OC(=O)[C@H](N)c1ccccc1)c1ccccc1Cl` (stereo partly drawn) [119 B], the results for the responders at 50 mg/kg in data set [1] (setting [3]) and in data set [1] (setting [4]) were 100% and 20%, respectively. The ED50 in data set [1] (setting [5]) was determined as 37.6 mg/kg.
In the case of `CCCC(CCC)C(=O)O` [valproic acid, reference compound], the ED50 in data set [1] (ip, 1 h) was 205 mg/kg. The responders at 100 mg/kg worked out at 0% in data set [1] (ip, 3 h, read-out: protective action [%] after 3 hrs) and 0% in data set [2]. Further, the “Neurotoxic limiting dose in the mouse, dose p.o.” value in the data set with mouse (p.o.) turned out to be 350 mg/kg.
`COC1=CC(=O)O[C@H]1[C@H](OC(=O)CN)c1ccccc1Cl` (relative stereo) [Example 112, threo-5-[2-chlorophenyl-glycyloxy)methyl-4-methoxy-2(5H)-furanone hydrochloride]: the “protective action [%] after 3 hrs” value in data set [1] (oral, 3 hrs after administration, n = 10, hydrochloride) is 70%. Moreover, in data set [1] (MES test, oral, 1 hour after administration, hydrochloride, 60 min), the “ED 50 values” turned out to be 22.2 mg/kg.
On to `COC1=CC(=O)OC1C(OC(=O)[C@@H]1CCCN1)c1ccc(Cl)cc1Cl` (single isomer, unassigned) [135 A], for which the “ED 50 values (estimated values)” value in data set [1] (setting [8]) was 65 to 75 mg/kg. In addition, the responders at 100 mg/kg in data set [1] (setting [6]) and in data set [1] (setting [7]) was 100% each time.
Take `COC1=CC(=O)OC1C(OC(=O)[C@@H]1CCCN1C(=O)OCc1ccccc1)c1ccccc1C(F)(F)F` (single isomer, unassigned) [138 A]: the responders at 100 mg/kg worked out at 30% in data set [1] (setting [6]) and 20% in data set [1] (setting [7]).
For `COC1=CC(=O)OC1C(OC(=O)[C@@H]1CCCN1)c1ccccc1` (stereo partly drawn) [110 A], in data set [1] (setting [8]), the “ED 50 values (estimated values)” value is 40 to 50 mg/kg. The responders at 100 mg/kg in data set [1] (setting [6]) is 100%; in data set [1] (setting [7]) it was 0%.
With `COC1=CC(=O)O[C@H]1[C@H](OC(=O)CCCNC(C)=O)c1ccccc1Cl` (relative stereo) [Example 115, threo-5-[4-(N-acetylamino)-butanoyloxy-(2-chlorophenyl)methyl]-4-methoxy-2(5H)-furanone], in data set [1] (setting [8]), the “ED 50 values (estimated values)” value was 30 to 40 mg/kg. Further, the responders at 100 mg/kg in data set [1] (setting [6]) and in data set [1] (setting [7]) was 100% throughout.

Source of the values: US4965283A, “Amino acid esters, process for the preparation thereof and use thereof” (Dr. Willmar Schwabe GmbH & Co., priority 1987, dated 1990).
